In paper PMC6934184, “Selective DNA-PKcs inhibition extends the therapeutic index of localized radiotherapy and chemotherapy” (The Journal of Clinical Investigation, 2019):

Target: T1, IKBKB (IKK beta) (Homo sapiens, UniProt O14920)
T1 construct: purchased Thermo Fisher Scientific (Life Technologies) SelectScreen
Test: SelectScreen Z'LYTE
Type: biochemical
Method in brief: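 SelectScreen broad panel; activity (Z'LYTE, Adapta) plus binding formats. ATP: Km app for CSF1R Z'LYTE; 10 for CAMK1 Adapta. Readout = % per kinase.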

T1 sequence (O14920 whole entry): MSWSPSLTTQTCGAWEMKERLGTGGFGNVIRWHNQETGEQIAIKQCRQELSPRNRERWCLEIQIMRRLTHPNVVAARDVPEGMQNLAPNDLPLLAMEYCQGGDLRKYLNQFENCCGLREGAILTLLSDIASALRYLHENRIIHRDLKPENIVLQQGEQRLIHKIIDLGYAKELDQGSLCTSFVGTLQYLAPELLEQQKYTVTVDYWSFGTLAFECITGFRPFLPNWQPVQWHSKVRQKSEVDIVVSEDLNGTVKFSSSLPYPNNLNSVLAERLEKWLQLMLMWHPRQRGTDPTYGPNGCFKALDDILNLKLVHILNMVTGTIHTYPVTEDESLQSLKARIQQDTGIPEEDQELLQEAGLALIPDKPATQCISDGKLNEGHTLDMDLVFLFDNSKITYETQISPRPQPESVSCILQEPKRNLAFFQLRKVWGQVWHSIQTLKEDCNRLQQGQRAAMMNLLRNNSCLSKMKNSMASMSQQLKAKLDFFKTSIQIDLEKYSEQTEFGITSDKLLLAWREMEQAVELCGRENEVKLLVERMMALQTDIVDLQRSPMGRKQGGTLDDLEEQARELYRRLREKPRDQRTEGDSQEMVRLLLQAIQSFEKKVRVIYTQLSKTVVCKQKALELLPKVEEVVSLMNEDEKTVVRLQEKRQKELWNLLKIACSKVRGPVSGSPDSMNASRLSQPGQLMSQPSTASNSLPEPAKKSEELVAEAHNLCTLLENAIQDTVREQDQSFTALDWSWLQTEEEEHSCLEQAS

## CN(C(=O)CN1CCOCC1)c1ccc2sc3c(-c4cccc5c(=O)cc(N6CC7CCC(C6)O7)oc45)cccc3c2c1 [NU5455]
  inhibition at 1 µM: -0.6%
